According to patent publication US9226928B2, “Spirocyclic isoxazoline parasiticidal combinations” (Zoetis Services LLC, priority 2012, dated 2016):

System: Haemonchus contortus L3 resistant strain
Experiment: In vitro motility assay, H. contortus L3 resistant strain
Type: cell-based
Conditions: 96 hours; for H. contortus L3 resistant MED: minimum efficacious dose, visual motility assessment; for % Motility: vs untreated control, LemnaTec, moxidectin 0.3 μM, pyrantel 10 μM, Compound A 100 μM, alone or combined

Row | SMILES | H. contortus L3 resistant MED [µM] | % Motility [%]
1 | CS(=O)(=O)CC(=O)N1CC2(C1)OCc1cc(C3=NO[C@@](c4cc(Cl)c(F)c(Cl)c4)(C(F)(F)F)C3)ccc12 [Compound A, (S)-1-(5′-(5-(3,5-dichloro-4-fluorophenyl)-5-(trifluoromethyl)-4,5-dihydroisoxazol-3-yl)-3′H-spiro[azetidine-3,1′-isobenzofuran]-1-yl)-2-(methylsulfonyl)ethanone] | >100 | 69.0
2 | CO/N=C1\C[C@]2(C[C@@H]3C[C@@H](C/C=C(\C)C[C@@H](C)/C=C/C=C4\CO[C@@H]5[C@H](O)C(C)=C[C@@H](C(=O)O3)[C@]45O)O2)O[C@H](/C(C)=C/C(C)C)[C@H]1C [Moxidectin, moxidectin] | 1 | 64.3
3 | CN1CCCN=C1/C=C/c1cccs1 [Pyrantel, pyrantel pamoate] | 33 | 80.0
